Laboratory results: patent US11976080B1, “Benzofuro[3,2-c]chromen-6-one compounds as antibacterial agents” (King Faisal University, priority 2023, dated 2024)
≈ marks a conversion by molar mass, not a printed value. Like-named read-outs stand apart in the source and are kept apart here.

How the values were obtained:
[1] = tested on: Enterococcus faecium ATCC 35667; assay: In vitro antibacterial activity (CLSI dilution MIC); type: cell-based; conditions: ATCC35667
[2] = tested on: Enterococcus faecium ATCC 51559 (VRE resistant); assay: as above; type: cell-based
[3] = tested on: Bacillus subtilis MTCC 441; assay: as above; type: cell-based; conditions: MTCC441
[4] = tested on: Staphylococcus aureus ATCC BAA-1556 (MERSA resistant); assay: as above; type: cell-based; conditions: ATCCBAA1556
[5] = tested on: Mycobacterium tuberculosis H37Rv strain; assay: Anti-tubercular alamar blue microplate MIC assay; type: cell-based; conditions: 168 h, 7 days, read-out: anti-mycobacterial activity (MIC)
[6] = tested on: Klebsiella pneumonia MTCC 618; assay: In vitro antibacterial activity (CLSI dilution MIC); type: cell-based; conditions: Klebsiella pneumoniae, MTCC618
[7] = tested on: Staphylococcus epidermidis; assay: as above; type: cell-based
[8] = tested on: Escherichia coli MTCC 443; assay: as above; type: cell-based; conditions: MTCC443
[9] = tested on: Pseudomonas aeruginosa MTCC 741; assay: as above; type: cell-based; conditions: MTCC741
[10] = tested on: Staphylococcus aureus ATCC 29213; assay: as above; type: cell-based; conditions: ATCC29213
DNA gyrase from E. coli = biological target: T1, DNA gyrase from E. coli (Escherichia coli, UniProt P0AES4+P0AES6); assay: Inspiralis E. coli DNA gyrase inhibition assay; type: biochemical
T1 construct: purchased Inspiralis
T1 sequence (P0AES4 whole entry, one chain of several): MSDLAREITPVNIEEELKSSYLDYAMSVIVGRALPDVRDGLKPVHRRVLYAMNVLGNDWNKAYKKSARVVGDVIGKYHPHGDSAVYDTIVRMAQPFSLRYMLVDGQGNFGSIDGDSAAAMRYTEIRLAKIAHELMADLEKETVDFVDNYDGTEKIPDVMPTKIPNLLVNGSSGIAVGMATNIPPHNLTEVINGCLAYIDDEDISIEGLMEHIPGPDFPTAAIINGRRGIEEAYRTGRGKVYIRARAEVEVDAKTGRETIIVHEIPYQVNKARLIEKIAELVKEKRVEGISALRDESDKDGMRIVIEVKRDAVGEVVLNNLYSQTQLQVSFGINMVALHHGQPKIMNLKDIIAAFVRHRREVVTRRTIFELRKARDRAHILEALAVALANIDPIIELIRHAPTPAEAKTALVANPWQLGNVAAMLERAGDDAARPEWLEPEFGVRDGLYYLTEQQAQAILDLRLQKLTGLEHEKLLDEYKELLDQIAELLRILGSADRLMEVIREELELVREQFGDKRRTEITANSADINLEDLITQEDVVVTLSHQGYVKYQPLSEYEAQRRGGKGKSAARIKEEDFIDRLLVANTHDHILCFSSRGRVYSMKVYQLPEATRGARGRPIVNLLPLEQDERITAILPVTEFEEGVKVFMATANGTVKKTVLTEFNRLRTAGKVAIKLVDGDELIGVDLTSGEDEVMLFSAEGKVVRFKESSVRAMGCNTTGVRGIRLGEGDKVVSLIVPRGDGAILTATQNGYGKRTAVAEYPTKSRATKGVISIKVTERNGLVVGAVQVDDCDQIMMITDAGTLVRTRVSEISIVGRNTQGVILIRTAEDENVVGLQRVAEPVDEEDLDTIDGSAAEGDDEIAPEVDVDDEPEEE
Procedure: Inhibitory potencies were investigated utilizing the Inspiralis assay on streptavidin-coated 96-well microtiter plates. First, the plates were rehydrated with buffer (20 mM Tris-HCl with pH 7.6, 0.01% w/v BSA, 0.05% v/v Tween 20, 137 mM NaCl) and the biotinylated oligonucleotide was then immobilized. After washing off the unbound oligonucleotide, the enzyme test was performed. The reaction volume of 30 μL in buffer (35 mM Tris×HCl with pH 7.5, 4 mM MgCl2, 24 mM KCl, 2 mM DTT, 1.8 mM spermidine, 1 mM ATP, 6.5% w/v glycerol, 0.1 mg/mL albumin) contained 1.5 U of DNA gyrase from E. coli, 0.75 μg of relaxed pNO1 plasmid, and 3 μL solution of the inhibitor in 10% DMSO and 0.008% Tween 20. Reaction solutions were incubated at 37° C. for 30 min. After that, the TF buffer (50 mM NaOAc with pH 5.0, 50 mM NaCl and 50 mM MgCl2) was added to terminate the enzymatic reaction. After additional incubation for 30 min at rt, during which biotinoligonucleotide-plasmid triplex was formed, the unbound plasmid was washed off using TF buffer and SybrGOLD in T10 buffer (10 mM Tris HCl with pH 8.0 and 1 mM EDTA) was added. The fluorescence was measured with a microplate reader (BioTek Synergy H4, excitation: 485 nm, emission: 535 nm). Initial screening was done at 100 or 10 μM concentration of inhibitors. […] GraphPad Prism software was used to calculate the IC50 values. […]

| SMILES | MIC [1] | MIC [2] | MIC ([3]; Bacillus subtilis MTCC 441, read-out: MIC) | MIC [4] | MIC [5] | MIC ([6]; Klebsiella pneumonia MTCC 618, read-out: MIC) | MIC [7] | MIC [8] | MIC ([9]; Pseudomonas aeruginosa MTCC 741, read-out: MIC) | MIC [10] | IC50 (DNA gyrase from E. coli) | MIC ([3]; Bacillus subtilis) | MIC [6] | MIC ([9]; Pseudomonas aeruginosa) |
| --- | --- | --- | --- | --- | --- | --- | --- | --- | --- | --- | --- | --- | --- | --- |
| CC(=O)Nc1ccc2oc3c4ccc(CC(=O)O)cc4oc(=O)c3c2c1 [Compound 5, 2-(8-acetamido-6-oxo-6H-benzofuro[3,2-c]chromen-3-yl)acetic acid] | 0.55 µg/mL (≈ 1.57 µM) | 0.5 µg/mL (≈ 1.42 µM) | 0.55 µg/mL (≈ 1.57 µM) | 1 µg/mL (≈ 2.85 µM) | 1 µg/mL (≈ 2.85 µM) | 0.75 µg/mL (≈ 2.13 µM) | 2 µg/mL (≈ 5.69 µM) | 0.75 µg/mL (≈ 2.13 µM) | 0.25 µg/mL (≈ 0.712 µM) | 1 µg/mL (≈ 2.85 µM) | 20 nM |  |  |  |
| CN[C@H](CC(C)C)C(=O)N[C@H]1C(=O)N[C@@H](CC(N)=O)C(=O)N[C@H]2C(=O)N[C@H]3C(=O)N[C@H](C(=O)N[C@H](C(=O)O)c4cc(O)cc(O)c4-c4cc3ccc4O)[C@H](O)c3ccc(c(Cl)c3)Oc3cc2cc(c3O[C@@H]2O[C@H](CO)[C@@H](O)[C@H](O)[C@H]2O[C@H]2C[C@](C)(N)[C@H](O)[C@H](C)O2)Oc2ccc(cc2Cl)[C@H]1O [Vancomycin, reference compound] |  |  |  |  |  |  |  |  |  |  |  | 0.5 µg/mL (≈ 0.345 µM) | > 128 µg/mL | > 128 µg/mL |
